Measured values reported in US20120277286A1, “COMPOSITIONS AND METHODS FOR THE TREATMENT OR PREVENTION OF MITOCHONDRIAL DISEASES” (The Government of the USA, as represented by the Secretary, …, priority 2009, published 2012).

B1: YFP-Parkin: YFP-tagged Parkin E3 ligase expressed from a transfected vector (protein, UniProt O60260 1-465, looked up)
E3 ubiquitin-protein ligase …: MIVFVRFNSSHGFPVEVDSDTSIFQLKEVVAKRQGVPADQLRVIFAGKELRNDWTVQNCDLDQQSIVHIVQRPWRKGQEMNATGGDDPRNAAGGCEREPQSLTRVDLSSSVLPGDSVGLAVILHTDSRKDSPPAGSPAGRSIYNSFYVYCKGPCQRVQPGKLRVQCSTCRQATLTLTQGPSCWDDVLIPNRMSGECQSPHCPGTSAEFFFKCGAHPTSDKETSVALHLIATNSRNITCITCTDVRSPVLVFQCNSRHVICLDCFHLYCVTRLNDRQFVHDPQLGYSLPCVAGCPNSLIKELHHFRILGEEQYNRYQQYGAEECVLQMGGVLCPRPGCGAGLLPEPDQRKVTCEGGNGLGCGFAFCRECKEAYHEGECSAVFEASGTTTQAYRVDERAAEQARWEAASKETIKKTTKPCPRCHVPVEKNGGCMHMKCPQPQCRLEWCWNCGCEWNRVCMGDHWFDV
modifications: YFP fusion
notes: YFP-tagged Parkin E3 ligase expressed from a transfected vector

Assays:
[1] = tested on: M17 human neuroblastoma cells; assay: YFP-Parkin recruitment to mitochondria in M17 cells; format: cell-based; conditions: M17 cells stably transduced with control shRNA (CCCP line) or PINK1 shRNA, 10 μM CCCP, 3 hours
Excerpt: HeLa YFP-Parkin, PINK1+/+ SV40 transformed MEFs cells, PINK1−/− SV40 transformed MEF, M17 neuroblastoma control shRNA, M17 neuroblastoma PINK1, and Mfn1/2−/− MEF cell lines have been described previously (Narendra (2008) J Cell Biol 183: 795-803). PINK1+/+ and PINK1−/− primary MEFs were isolated from embryos using a standard protocol (Gautier (2008) Proc Natl Acad Sci USA 105: 11364-11369). Parkin+/+ and Parkin−/− transformed MEFs were created by isolation of primary cells from embryos of B6.129S4-Park2tm1Shn/J mice (Jackson Labs), using a standard protocol (Gautier (2008) Proc Natl Acad Sci USA 105: 11364-11369), followed by retroviral transduction of SV40 (Applied Biological Materials, Inc.). YFP-Parkin, YFPParkin mutants, mCherry-Parkin, PINK1-YFP, PINK1 KD-YFP, PINK1 Δ1-110-YFP, and Opa3-PINK1 Δ1-110-YFP are in C1 or N1 Clontech vectors. PINK1WT-V5, PINK1 KD-V5, and PINK1 Δ1-156-V5 are in pDest40 vector (Invitrogen). PINK1 patient mutations are in pLenti-V5 vector (Invitrogen). PINK1-myc is in a pCMBTNT vector (Promega).
Confocal microscopy of fixed samples, scoring of Parkin recruitment and Parkininduced mitophagy, and live cell imaging were performed as described previously (Narendra (2008) J Cell Biol 183: 795-803). Experiments in Mfn1/2 null cells were performed as described previously with minor modifications. […]

[2] = tested on: M17 cells; assay: Mitochondrial mass by Mitotracker Green staining; format: cell-based, human; conditions: control shRNA (CCCP line) or PINK1 shRNA
Procedure: To test whether PINK1 expression affects mitochondrial turnover in the presence of endogenous levels of Parkin, the control shRNA and PINK1 shRNA M17 cells (which express moderate levels of Parkin) were treated with DMSO or CCCP for 24 hours and measured their relative mitochondrial mass by Mitotracker Green (MTG) staining and flow cytometry. MTG, a sensitive measure of mitochondrial mass, stains mitochondrial lipid in a membrane potential independent manner and has been used to measure mitochondrial mass of depolarized mitochondria previously (Hristova et al., J Biol Chem. In press; Whitworth et al., Dis Model Mech 1: 168-174, 2008). […] To more directly assay mitochondrial turnover in control and PINK1 shRNA M17 cells, the cells were pulsed with MTG and loss of MTG intensity was tracked at 0, 16, and 24 hours in the presence of CCCP. Consistent with the hypothesis that endogenous PINK1 promotes the degradation of depolarized mitochondria, Mitotracker Green intensity decreased more slowly in PINK1 shRNA cells when compared with control shRNA cells, treated with CCCP (0.58±0.07 vs. 0.33±0.07 relative MTG intensity at 24 hours) (FIG. 12F).

[3] = tested on: HeLa cells; assay: Transmission electron microscopy of mitochondria and lysosomes; format: cell-based; conditions: 10 μM CCCP 48 hours
Procedure: HeLa cells transfected with YFP-Parkin for 18 hours were sorted for YFP using FACS. After sorting, 99.7% of cells contained a detectable YFP signal. After overnight culture, cells were treated with 10 μM CCCP for 48 h, fixed with 4% glutaraldehyde in 0.1 N sodium-cacodylate at room temperature for 1 hour, and processed for electron microscopy using a standard protocol. 22 cells expressing Parkin and 22 untransfected cells were randomly selected and imaged at 8,000× magnification by transmission electron microscope (200CX; JEOL Ltd.) and a digital camera system (XR-100; Advanced Microscopy Techniques, Corp.). The area of cytoplasm in each cell was calculated using National Institutes of Health ImageJ.

Row | Molecule | cells with mitochondrial YFP-Parkin [1] [%] | relative MTG intensity ([2]; M17 cells pulsed with MTG, CCCP, at 24 hours) | change in mitochondrial mass, CCCP vs. DMSO ([2]; M17 cells, 24 hours, MTG flow cytometry) [%] | cells with either few or no detectable mitochondrial structures ([3]; electron microscopy) [%] | lysosomes per cell area ([3]; n=22 cells) [lysosomes/μm 2 cell area] | mitochondria per area of cytoplasm ([3]; n=22 cells)
1 | N#CC(C#N)=NNc1cccc(Cl)c1 [CCCP, carbonyl cyanide m-chlorophenylhydrazone] | 67.3±3.1 | 0.33±0.07 | −22.4±12.6 | – | – | –
2 | B1 | – | – | – | 90 | 0.38±0.23 | 0.074±0.21 mitochondria/μm 2 of cytoplasm
